Test system: NCI-H23 complex spheroids with HUVEC/MSC, viability
Experiment: Anticancer human tumor NCI-H23 cell line growth inhibition [RAS];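 note: spheroids exposed to compound for 7 days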;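 for viability, T/C: 100% = DMSO vehicle control viability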
Conditions: for viability, T/C: stronger effect = lower value
How it was run: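 Agents were tested in combination matrices in half-log decrements from a top concentration at or near clinical Cmax (10 microM if undetermined). Targets were multi-cell spheroids of tumour lines plus HUVEC and MSC stromal cells.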

[1] = curve of first compound, second compound 0.000949 µM
[2] = curve of first compound, second compound 0.003 µM
[3] = curve of first compound, second compound 0.00949 µM
[4] = curve of first compound, second compound 0.03 µM
[5] = curve of first compound, second compound 0.0949 µM
[6] = curve of first compound, second compound 0.3 µM
[7] = second compound 0.000949 µM, first compound 0.00316 µM
[8] = second compound 0.000949 µM, first compound 0.01 µM
[9] = second compound 0.000949 µM, first compound 0.0316 µM
[10] = second compound 0.000949 µM, first compound 0.1 µM
[11] = second compound 0.000949 µM, first compound 0.316 µM
[12] = second compound 0.000949 µM, first compound 1 µM
[13] = second compound 0.003 µM, first compound 0.00316 µM
[14] = second compound 0.003 µM, first compound 0.01 µM
[15] = second compound 0.003 µM, first compound 0.0316 µM
[16] = second compound 0.003 µM, first compound 0.1 µM
[17] = second compound 0.003 µM, first compound 0.316 µM
[18] = second compound 0.003 µM, first compound 1 µM
[19] = second compound 0.00949 µM, first compound 0.00316 µM
[20] = second compound 0.00949 µM, first compound 0.01 µM
[21] = second compound 0.00949 µM, first compound 0.0316 µM
[22] = second compound 0.00949 µM, first compound 0.1 µM
[23] = second compound 0.00949 µM, first compound 0.316 µM
[24] = second compound 0.00949 µM, first compound 1 µM
[25] = second compound 0.03 µM, first compound 0.00316 µM
[26] = second compound 0.03 µM, first compound 0.01 µM
[27] = second compound 0.03 µM, first compound 0.0316 µM
[28] = second compound 0.03 µM, first compound 0.1 µM
[29] = second compound 0.03 µM, first compound 0.316 µM
[30] = second compound 0.03 µM, first compound 1 µM
[31] = second compound 0.0949 µM, first compound 0.00316 µM
[32] = second compound 0.0949 µM, first compound 0.01 µM
[33] = second compound 0.0949 µM, first compound 0.0316 µM
[34] = second compound 0.0949 µM, first compound 0.1 µM
[35] = second compound 0.0949 µM, first compound 0.316 µM
[36] = second compound 0.0949 µM, first compound 1 µM
[37] = second compound 0.3 µM, first compound 0.00316 µM
[38] = second compound 0.3 µM, first compound 0.01 µM
[39] = second compound 0.3 µM, first compound 0.0316 µM
[40] = second compound 0.3 µM, first compound 0.1 µM
[41] = second compound 0.3 µM, first compound 0.316 µM
[42] = second compound 0.3 µM, first compound 1 µM

Q: Which IC50 [1] does the source give for O=C(c1ccc(F)c(F)c1Nc1ccc(I)cc1F)N1CC(O)([C@@H]2CCCCN2)C1 + CCn1c(-c2cc(N3CCN(C)CC3)cnc2C(C)OC)c2c3cc(ccc31)-c1csc(n1)CC(NC(=O)C1CC1C)C(=O)N1CCCC(N1)C(=O)OCC(C)(C)C2 here?
A: < 3.16 nM

Q: What about the IC50 [2] of the same compound?
A: < 3.16 nM

Q: And the IC50 [3]?
A: < 3.16 nM

Q: What about the IC50 [4] of the same compound?
A: < 3.16 nM

Q: What about the IC50 [5] of the same compound?
A: < 3.16 nM

Q: What about the IC50 [6] of the same compound?
A: < 3.16 nM

Q: What about the viability, T/C [7] of the same compound?
A: 40.8%

Q: And the viability, T/C [8]?
A: 42.1%

Q: What about the viability, T/C [9] of the same compound?
A: 30.3%

Q: What about the viability, T/C [10] of the same compound?
A: 27.7%

Q: What about the viability, T/C [11] of the same compound?
A: 14.7%

Q: And the viability, T/C [12]?
A: 7.09%

Q: What about the viability, T/C [13] of the same compound?
A: 31.5%

Q: What about the viability, T/C [14] of the same compound?
A: 33.4%

Q: What about the viability, T/C [15] of the same compound?
A: 22.9%

Q: What about the viability, T/C [16] of the same compound?
A: 20.1%

Q: What about the viability, T/C [17] of the same compound?
A: 10.2%

Q: And the viability, T/C [18]?
A: 5.97%

Q: What about the viability, T/C [19] of the same compound?
A: 33.3%

Q: And the viability, T/C [20]?
A: 20.2%

Q: What about the viability, T/C [21] of the same compound?
A: 19%

Q: What about the viability, T/C [22] of the same compound?
A: 10.2%

Q: And the viability, T/C [23]?
A: 5.94%

Q: And the viability, T/C [24]?
A: 5.43%

Q: And the viability, T/C [25]?
A: 24%

Q: What about the viability, T/C [26] of the same compound?
A: 15.2%

Q: What about the viability, T/C [27] of the same compound?
A: 10.5%

Q: What about the viability, T/C [28] of the same compound?
A: 7.97%

Q: What about the viability, T/C [29] of the same compound?
A: 5.26%

Q: And the viability, T/C [30]?
A: 5.71%

Q: What about the viability, T/C [31] of the same compound?
A: 16.1%

Q: And the viability, T/C [32]?
A: 11.9%

Q: And the viability, T/C [33]?
A: 8.79%

Q: And the viability, T/C [34]?
A: 6.35%

Q: And the viability, T/C [35]?
A: 5.88%

Q: What about the viability, T/C [36] of the same compound?
A: 5.06%

Q: And the viability, T/C [37]?
A: 12.4%

Q: And the viability, T/C [38]?
A: 9.36%

Q: And the viability, T/C [39]?
A: 8.61%

Q: And the viability, T/C [40]?
A: 5.57%

Q: What about the viability, T/C [41] of the same compound?
A: 5.66%

Q: And the viability, T/C [42]?
A: 6.36%

Q: CC1(O)CCCC1n1c(=O)c(C(F)F)cc2cnc(NC3CCN(S(C)(=O)=O)CC3)nc21 (stereo not drawn) was tested. Which viability, T/C (compound 0.0316 µM) did it give?
A: 94% [middle of 4 runs]

Q: What about the viability, T/C (compound 0.316 µM) of the same compound?
A: 67.5% [middle of 4 runs]

Q: And the viability, T/C (compound 1 µM)?
A: 80.9% [middle of 4 runs]

Q: What about the viability, T/C (compound 3.16 µM) of the same compound?
A: 71.7% [middle of 4 runs]

Q: What about the viability, T/C (compound 10 µM) of the same compound?
A: 14.3% [middle of 4 runs]

Q: And the IC50 (curve of compound)?
A: 4.68 µM [middle of 4 runs]

Q: For CC(Nc1ccc2c(c1)OCCn1cc(N3C(=O)OCC3C(F)F)nc1-2)C(N)=O (stereo not drawn) + CCn1c(-c2cccnc2C(C)OC)c2c3cc(ccc31)N1CCOC(CC(NC(=O)C(C(C)C)N(C)C(=O)C3(F)CCN(C(=O)C#CC(C)(C)N(C)C)CC3)C(=O)N3CCCC(N3)C(=O)OCC(C)(C)C2)C1, which IC50 [1] is on record?
A: < 31.6 nM

Q: And the IC50 [2]?
A: < 31.6 nM

Q: What about the IC50 [3] of the same compound?
A: < 31.6 nM

Q: And the IC50 [4]?
A: < 31.6 nM

Q: And the IC50 [5]?
A: < 31.6 nM

Q: What about the IC50 [6] of the same compound?
A: < 31.6 nM

Q: What about the viability, T/C [9] of the same compound?
A: 29.1%

Q: And the viability, T/C [10]?
A: 22.3%

Q: And the viability, T/C [11]?
A: 21%

Q: What about the viability, T/C [12] of the same compound?
A: 23.1%

Q: And the viability, T/C (second compound 0.000949 µM, first compound 3.16 µM)?
A: 21.2%

Q: What about the viability, T/C (second compound 0.000949 µM, first compound 10 µM) of the same compound?
A: 14%

Q: What about the viability, T/C [15] of the same compound?
A: 28.8%

Q: And the viability, T/C [16]?
A: 23.6%

Q: What about the viability, T/C [17] of the same compound?
A: 19.2%

Q: What about the viability, T/C [18] of the same compound?
A: 21%

Q: What about the viability, T/C (second compound 0.003 µM, first compound 3.16 µM) of the same compound?
A: 21.1%

Q: What about the viability, T/C (second compound 0.003 µM, first compound 10 µM) of the same compound?
A: 13.9%

Q: And the viability, T/C [21]?
A: 28.1%

Q: What about the viability, T/C [22] of the same compound?
A: 21.2%

Q: What about the viability, T/C [23] of the same compound?
A: 20.8%

Q: And the viability, T/C [24]?
A: 19.1%

Q: What about the viability, T/C (second compound 0.00949 µM, first compound 3.16 µM) of the same compound?
A: 18.2%

Q: What about the viability, T/C (second compound 0.00949 µM, first compound 10 µM) of the same compound?
A: 14.7%

Q: What about the viability, T/C [27] of the same compound?
A: 23.1%

Q: And the viability, T/C [28]?
A: 24.4%

Q: What about the viability, T/C [29] of the same compound?
A: 20.3%

Q: And the viability, T/C [30]?
A: 18.3%

Q: And the viability, T/C (second compound 0.03 µM, first compound 3.16 µM)?
A: 17%

Q: What about the viability, T/C (second compound 0.03 µM, first compound 10 µM) of the same compound?
A: 16%

Q: What about the viability, T/C [33] of the same compound?
A: 24.7%

Q: What about the viability, T/C [34] of the same compound?
A: 21.1%

Q: What about the viability, T/C [35] of the same compound?
A: 22.5%

Q: And the viability, T/C [36]?
A: 20.7%

Q: What about the viability, T/C (second compound 0.0949 µM, first compound 3.16 µM) of the same compound?
A: 13.8%

Q: What about the viability, T/C (second compound 0.0949 µM, first compound 10 µM) of the same compound?
A: 16.6%

Q: And the viability, T/C [39]?
A: 22.4%

Q: And the viability, T/C [40]?
A: 21.3%

Q: And the viability, T/C [41]?
A: 20.1%

Q: And the viability, T/C [42]?
A: 15%

Q: What about the viability, T/C (second compound 0.3 µM, first compound 3.16 µM) of the same compound?
A: 16.7%

Q: What about the viability, T/C (second compound 0.3 µM, first compound 10 µM) of the same compound?
A: 14.9%

Q: With CC1(C)CCC(Nc2ncc(C(F)(F)F)c(-c3c[nH]c4c(P(C)(C)=O)c(C#N)ccc34)n2)CN1 (stereo not drawn) as the compound, how does the viability, T/C (compound 0.000949 µM) read?
A: 86.7% [middle of 4 runs]

Q: And the viability, T/C (compound 0.003 µM)?
A: 73.2% [middle of 4 runs]

Q: And the viability, T/C (compound 0.00949 µM)?
A: 51.7% [middle of 4 runs]

Q: And the viability, T/C (compound 0.03 µM)?
A: 49.3% [middle of 4 runs]

Q: What about the viability, T/C (compound 0.0949 µM) of the same compound?
A: 45.9% [middle of 4 runs]

Q: And the viability, T/C (compound 0.3 µM)?
A: 48% [middle of 4 runs]

Q: Which results are given for CC(C)n1nc(-c2ccc3oc(N)nc3c2)c2c(N)ncnc21 + CCn1c(-c2cc(N3CCN(C)CC3)cnc2C(C)OC)c2c3cc(ccc31)-c1csc(n1)CC(NC(=O)C1CC1C)C(=O)N1CCCC(N1)C(=O)OCC(C)(C)C2?
A: IC50 [1]: < 0.316 nM; IC50 [2]: < 0.316 nM; IC50 [3]: < 0.316 nM; IC50 [4]: < 0.316 nM; IC50 [5]: < 0.316 nM; IC50 [6]: < 0.316 nM; viability, T/C (second compound 0.000949 µM, first compound 0.000316 µM): 44.2%; viability, T/C (second compound 0.000949 µM, first compound 0.001 µM): 41.7%; viability, T/C [7]: 24.1%; viability, T/C [8]: 30%; viability, T/C [9]: 24.2%; viability, T/C [10]: 13.5%; viability, T/C (second compound 0.003 µM, first compound 0.000316 µM): 32.4%; viability, T/C (second compound 0.003 µM, first compound 0.001 µM): 24.6%; viability, T/C [13]: 25.8%; viability, T/C [14]: 21.6%; viability, T/C [15]: 19%; viability, T/C [16]: 9.18%; viability, T/C (second compound 0.00949 µM, first compound 0.000316 µM): 31.2%; viability, T/C (second compound 0.00949 µM, first compound 0.001 µM): 26.8%; viability, T/C [19]: 24.1%; viability, T/C [20]: 20%; viability, T/C [21]: 16.4%; viability, T/C [22]: 11.4%; viability, T/C (second compound 0.03 µM, first compound 0.000316 µM): 24.5%; viability, T/C (second compound 0.03 µM, first compound 0.001 µM): 25.2%; viability, T/C [25]: 22.7%; viability, T/C [26]: 19%; viability, T/C [27]: 11.7%; viability, T/C [28]: 11.6%; viability, T/C (second compound 0.0949 µM, first compound 0.000316 µM): 19.2%; viability, T/C (second compound 0.0949 µM, first compound 0.001 µM): 19.4%; viability, T/C [31]: 19.2%; viability, T/C [32]: 16.6%; viability, T/C [33]: 9.51%; viability, T/C [34]: 11.2%; viability, T/C (second compound 0.3 µM, first compound 0.000316 µM): 17.9%; viability, T/C (second compound 0.3 µM, first compound 0.001 µM): 17%; viability, T/C [37]: 16.4%; viability, T/C [38]: 13.4%; viability, T/C [39]: 13.5%; viability, T/C [40]: 11.5%

— PubChem BioAssay AID2060885 (Molecular Pharmacology Branch, DTP, NCI, 2025)
